Results published in patent publication US20260256962A1, “PRODRUGS FOR COMPOUNDS SPECIFIC TO GRANZYME B AND USES THEREOF” (CYTOSITE BIOPHARMA INC., priority 2021, published 2026).

Experiments:
[1] = In vivo conversion of [^18F] granzyme B prodrugs to active form, radioactive metabolite screening of blood by radio-HPLC; design: species or system male CD-1 mice; settings: for conversion to the active form: in vivo, mouse plasma 5 minutes after administration (FIGS. 4C, 5C); for 5 min (% active form in blood) / 15 min (% active form in blood): male CD-1 mice, tail vein injection, radio-HPLC; for 5 min (% active form in blood): blood 5 minutes post-injection; for 15 min (% active form in blood): blood 15 minutes post-injection
Text: In vivo conversion of prodrugs was monitored by radioactive metabolite screening studies performed by injection of [^18F] granzyme B tracers in male CD-1 mice followed by analysis of extracted blood samples by radiometric HPLC. Results are reported as percent active form present in blood (Table 11).
Briefly, male CD-1 mice were anesthetized prior to dosing with approximately 250 μCi [^18F] granzyme B tracer via tail vein injection (n=3 mice/timepoint). For blood collection, mice were sacrificed following cardiac exsanguination with a syringe pre-rinsed with sodium heparin at 5 and 15 minutes post-injection and samples were prepared for analysis via radio-HPLC.
Blood samples were centrifuged at 1500 RCF for 5 minutes to allow for separation of plasma. Plasma samples were mixed with two volumes of methanol, vortexed for 30 seconds, and then centrifuged at 1500 RCF for 2 minutes. The supernatant was separated from the pellet and diluted 1:4 with PBS buffer pH 7.4 or water prior to analysis by HPLC.
Samples were then analyzed on an Agilent 1290 series UPLC UV coupled with a BGO coincidence detector. The HPLC method utilized 2) Phenomenex Monolithic C18 (100×4.6 mm); 100-200 μL injection volume; flow-rate: 1.2 mL/min; solvent for A: 20 mM ammonium acetate in water; solvent for B: 100% methanol; gradient: initial hold at 5% B hold for 1 min, 5% to 40% in 7 min, hold 40% B for 2 min, increase from 40% to 95% B in 1 min, hold 95% B for 2 min, and then return to 5% B to reequilibrate.

granzyme B = molecular target: T1, granzyme B (Homo sapiens, UniProt P10144); assay: In vivo PET/CT imaging of ^18F-granzyme B tracers in Matrigel mouse model of active and pro-form granzyme B; design: species or system female nude athymic mice; settings: nude athymic mice, i.v. radiotracer, static PET 75 minutes post-injection
T1 construct: In Vivo Imaging of ^18F-Granzyme B Tracers in a Matrigel Mouse Model of Active and Pro-Form Granzyme B; purchased Enzo Life Sciences; host or cells: purified from human lymphocytes
Experimental: Female nude athymic (5-6 weeks, 15-30 g) mice were purchased from Jackson Laboratories. Both granzyme B (Human lymphocytes, Enzo Life Sciences) and inactivated human pro-form granzyme B (R&D Systems) were also commercially purchased. […] Each granzyme B enzyme were then brought up to a final concentration of 0.05 μg/ul using phosphate buffered saline (GE, Hyclone). Matrigel (65 μl, Corning) was mixed with 15 μl of 0.75 μg of each granzyme B enzyme (granzyme B and pro-form granzyme B) within each Eppendorf tube. The mice were then anesthetized with 2.5-3% isoflurane mixed with oxygen. Approximately 60-80 μl of granzyme B/Matrigel or the pro-form granzyme B/Matrigel were then injected using a 28-gauge×0.5-inch insulin syringe (Terumo) to form implants on the right and left shoulder flanks of the mice. […] After the radiotracer injection, the catheter was removed and measured for any remaining residual radioactivity. […] PET signal in the granzyme B implants were quantified by manually drawing regions of interest (ROIs) over the Matrigel implants based on the fused PET/CT images and the corresponding activity values were determined with VivoQuant (Invicro, Massachusetts). […] Target to background ratios (TBR's) were then calculated by dividing the granzyme B % ID/g value by the pro-form granzyme B % ID/g value.

T1 sequence (P10144 21-247): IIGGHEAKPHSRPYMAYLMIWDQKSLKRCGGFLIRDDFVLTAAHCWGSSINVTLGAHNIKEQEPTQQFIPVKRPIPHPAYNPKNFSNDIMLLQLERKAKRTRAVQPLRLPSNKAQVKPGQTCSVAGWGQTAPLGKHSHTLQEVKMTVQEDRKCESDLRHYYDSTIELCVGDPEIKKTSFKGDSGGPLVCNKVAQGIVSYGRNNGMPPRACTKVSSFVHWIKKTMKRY

SMILES: CC[C@H](C)[C@H](NC(=O)CCNC(=O)CCNC(=O)[C@@H](CCC(=O)O)NC(=O)CN1CCC(CN2CCN3CCN(CC2)CC(=O)[O][Al]([F])[O]C(=O)C3)CC1)C(=O)N[C@H]1CCc2cccc3c2N(C1=O)[C@H](C(=O)N[C@H]1CC(=O)O[C@@H]1OC)C3 [[^18F] 3-Al]
- conversion to the active form [1]: slow conversion to the active form
- 5 min (% active form in blood) [1]: 13%
- 15 min (% active form in blood) [1]: 17%
- differentiation in Matrigel (granzyme B vs pro-form granzyme B implants) (granzyme B): poor differentiation in Matrigel

SMILES: CC[C@H](C)[C@H](NC(=O)CCNC(=O)CCNC(=O)[C@@H](CCC(=O)O)NC(=O)CN1CCC(CN2CCN3CCN(CC2)CC(=O)[O][Al]([F])[O]C(=O)C3)CC1)C(=O)N[C@H]1CCc2cccc3c2N(C1=O)[C@H](C(=O)N[C@H]1CC(=O)O[C@H]1OC)C3 [[^18F] 4-Al]
- conversion to the active form [1]: rapid conversion to the active form
- 5 min (% active form in blood) [1]: 92%
- 15 min (% active form in blood) [1]: 94%
- differentiation in Matrigel (granzyme B vs pro-form granzyme B implants) (granzyme B): good differentiation in Matrigel

SMILES: CCO[C@@H]1OC(=O)C[C@@H]1NC(=O)[C@@H]1Cc2cccc3c2N1C(=O)[C@@H](NC(=O)[C@@H](NC(=O)CCNC(=O)CCNC(=O)[C@@H](CCC(=O)O)NC(=O)CN1CCC(CN2CCN4CCN(CC2)CC(=O)[O][Al]([F])[O]C(=O)C4)CC1)[C@@H](C)CC)CC3 [[^18F] 5-Al]
- 5 min (% active form in blood) [1]: 98%
- 15 min (% active form in blood) [1]: 100%

SMILES: CC[C@H](C)[C@H](NC(=O)COCCNC(=O)[C@@H](CCC(=O)O)NC(=O)[C@@H](CCC(=O)O)NC(=O)CN1CCC(CN2CCN3CCN(CC2)CC(=O)[O][Al]([F])[O]C(=O)C3)CC1)C(=O)N[C@H]1CCc2cccc3c2N(C1=O)[C@H](C(=O)N[C@H]1CC(=O)O[C@@H]1OC)C3 [[^18F] 6-Al]
- 5 min (% active form in blood) [1]: 11%
- 15 min (% active form in blood) [1]: 16%

SMILES: CC[C@H](C)[C@H](NC(=O)COCCNC(=O)[C@@H](CCC(=O)O)NC(=O)[C@@H](CCC(=O)O)NC(=O)CN1CCC(CN2CCN3CCN(CC2)CC(=O)[O][Al]([F])[O]C(=O)C3)CC1)C(=O)N[C@H]1CCc2cccc3c2N(C1=O)[C@H](C(=O)N[C@H]1CC(=O)O[C@H]1OC)C3 [[^18F] 7-Al]
- 5 min (% active form in blood) [1]: 69%
- 15 min (% active form in blood) [1]: 78%

SMILES: CCO[C@@H]1OC(=O)C[C@@H]1NC(=O)[C@@H]1Cc2cccc3c2N1C(=O)[C@@H](NC(=O)[C@@H](NC(=O)COCCNC(=O)[C@@H](CCC(=O)O)NC(=O)[C@@H](CCC(=O)O)NC(=O)CN1CCC(CN2CCN4CCN(CC2)CC(=O)[O][Al]([F])[O]C(=O)C4)CC1)[C@@H](C)CC)CC3 [[^18F] 8-Al]
- 5 min (% active form in blood) [1]: 86%
- 15 min (% active form in blood) [1]: 100%

SMILES: CC[C@H](C)[C@H](NC(=O)CCNC(=O)CCNC(=O)CN(CC(=O)O)C(=O)CN1CCC(CN2CCN3CCN(CC2)CC(=O)[O][Al]([F])[O]C(=O)C3)CC1)C(=O)N[C@H]1CCc2cccc3c2N(C1=O)[C@H](C(=O)N[C@H]1CC(=O)O[C@H]1OC)C3 [[^18F] 9-Al]
- 5 min (% active form in blood) [1]: 90%
- 15 min (% active form in blood) [1]: 100%
